Assays:
[1] = aqueous environment; cited from earlier work
[2] = Hwang et al. J. Am. Chem. Soc. 2007; cited from earlier work
[3] = solubility of hydrophobic guest in water, observed by 1H NMR; format: physicochemical

Q: For Cucurbit[8]uril, which “association constants (Ka), simultaneous binding of two organic guest molecules” value [1] is on record?
A: ≈ 10^11 M^−2

Q: With cucurbit[7]uril [CB[7]] as the compound, how does the “Ka, 1:1 complex with ferrocene derivatives” value [2] read?
A: ≈ 10^12 M^−1

Q: Which “change in solubility in water” value ([3]; addition of CB[8] to a solution of Np-PEG5k and 3) does the source give for CCCCCCCCCCCCCCCCCC[n+]1ccc(-c2cc[n+](C)cc2)cc1 [Viologen 3, Octadecyl methyl viologen] here?
A: increase in solubility

Q: What about the water solubility ([3]; guest alone) of the same compound?
A: only sparingly water-soluble
